Measured values taken from patent EP0754034B1, “EFFERVESCENT PHARMACEUTICAL FORMULATIONS CONTAINING CONTROLLED RELEASE BIODEGRADABLE MICROCAPSULES” (ELAN CORPORATION, Plc, priority 1994, dated 1995).
Values after ≈ are worked out from the molar mass of the structure shown. Read-outs that look alike come from different tables or passages of the source.

Experiments:
[1] = Saturated solubility (Cs) measured to establish sink conditions; format: physicochemical
Description: Prior to carrying out in vitro release studies, the saturated solubility of diltiazem HCI was measured in order to establish sink conditions.
Prior to carrying out in vitro release studies, the saturated solubility of diltiazem base was measured in order to establish sink conditions. […] The microsphere systems studied had diltiazem base starting loadings of 10% w/w, 20% w/w, 30% w/w, and 50% w/w, D 50% of […], respectively, and were prepared by Method A using the Ultra Turrax.

[2] = cited from earlier work

Compound | solubility ([1]; aqueous buffer, thermodynamic from solid, phosphate buffer pH 7.4, read-out: Cs (saturated solubility)) [mg/mL] | solubility ([1]; pH 1.2, read-out: Cs (saturated solubility)) [mg/mL] | solubility ([1]; pH 1.2, simulated gastric fluid, thermodynamic from solid) [mg/mL] | solubility ([1]; pH 7.4, aqueous buffer, thermodynamic from solid) [mg/mL] | pKa [2]
COc1ccc([C@@H]2Sc3ccccc3N(CCN(C)C)C(=O)[C@@H]2OC(C)=O)cc1 [Diltiazem HCI] | 2.39 (≈ 5.77 mM) | > 1000 | – | – | –
COc1ccc([C@@H]2Sc3ccccc3N(CCN(C)C)C(=O)[C@@H]2OC(C)=O)cc1 [Diltiazem base] | – | – | 227 (≈ 549 mM) | 1.06 (≈ 2.56 mM) | around 8
